{
  "source": "patent US20050192272A1",
  "about": "“Substituted benzodiazepines as inhibitors of the chemokine receptor CXCR4” (priority 2003, published 2005)",
  "origin": "cited, not measured here",
  "key": {"[1]": {"settings": "Phase I/II clinical trials"}, "[2]": {"settings": "rats"}, "CXCR4": {"molecular_target": "CXCR4 (Homo sapiens, UniProt P61073)", "sequence (P61073 whole entry)": "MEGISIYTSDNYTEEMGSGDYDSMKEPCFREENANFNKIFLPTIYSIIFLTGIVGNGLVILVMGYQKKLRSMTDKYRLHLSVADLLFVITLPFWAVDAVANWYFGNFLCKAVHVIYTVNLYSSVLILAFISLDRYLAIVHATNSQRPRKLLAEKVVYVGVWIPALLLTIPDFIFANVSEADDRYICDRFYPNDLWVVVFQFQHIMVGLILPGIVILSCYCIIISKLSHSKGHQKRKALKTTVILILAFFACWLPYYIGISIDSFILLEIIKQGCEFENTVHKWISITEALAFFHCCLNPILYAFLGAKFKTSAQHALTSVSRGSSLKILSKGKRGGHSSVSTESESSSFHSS", "settings": "read-out: IC50 in inhibiting the binding of CXCL12 to CXCR4"}},
  "data": [
    {"compound": "c1cc(CN2CCCNCCNCCCNCC2)ccc1CN1CCCNCCNCCCNCC1", "note": "[ALX40-4C]", "values": [
      {"measurement": "acute cardiac toxicity", "setting": "month-long clinical study, 1995", "result": "did not exhibit any acute cardiac toxicity"},
      {"measurement": "adverse side effects", "setting": "one-month Phase I/II clinical study", "result": "no adverse side effects"}
    ]},
    {"compound": "c1cc(CN2CCCNCCNCCCNCC2)ccc1CN1CCCNCCNCCCNCC1", "note": "[AMD3100]", "values": [
      {"measurement": "cardiac toxicity", "setting": "[1]", "result": "exhibited certain cardiac toxicity properties"},
      {"measurement": "effectiveness", "setting": "[1]", "result": "limited effectiveness"}
    ]},
    {"compound": "C[C@H](NC(=O)[C@H](CCCNC(=N)N)NC(=O)c1ccc(CNCc2ccccn2)cc1)c1cccc2ccccc12", "note": "[KRH-1636]", "values": [
      {"measurement": "absorption from the duodenum", "setting": "[2]", "result": "absorbed from the duodenum in rats"}
    ]},
    {"compound": "[Tyr^5,12, Lys^7]-polyphemusin II [T-22]", "values": [
      {"measurement": "inhibition of multiplication of X4-strains of HIV", "setting": "X4-strains of HIV; through specific binding to the CXCR4 receptor", "result": "strongly inhibit"}
    ]},
    {"compound": "c(Nal-Gly-tyr-Arg-Arg) [FC131]", "values": [
      {"measurement": "level of anti-HIV activity and antagonism among CXCR4 antagonists reported to date", "setting": "X4-strains of HIV", "result": "matched"},
      {"measurement": "IC50", "setting": "CXCR4", "result": 4, "unit": "nM"}
    ]}
  ]
}
